Paper PMC3757248, “Antiestrogen-binding site ligands induce autophagy in myeloma cells that proceeds through alteration of cholesterol metabolism” (Oncotarget, 2013)

Experiments:
[1] = biological target: T1, AEBS (Homo sapiens, UniProt Q15125+Q9UBM7); assay: Binding to the AEBS in RPMI 8226
[2] = tested on: RPMI 8226 cells; assay: Electron microscopy for MLBs, AVs and UVs; assay type: cell-based, human; details: 48 h, 10 μM drug (PBPE 40 μM)
[3] = tested on: LP-1 cells; assay: Electron microscopy for MLBs, AVs and UVs; assay type: cell-based, human; details: 48 h, 10 μM drug (PBPE 40 μM)
[4] = tested on: HMCLs; assay: Free sterol accumulation in HMCLs; assay type: cell-based, human
Description: (§1) The organic layer was reduced to dryness under a flux of argon and the residue was resuspended in ethanol. Sterols were analyzed by liquid chromatography and gas-liquid chromatography as described before. Neutral lipids and sphingomyelin analyses were done according to previously published procedures.

[5] = tested on: Karpas 620; parameters: method as in earlier work; details: cited from earlier work
[6] = tested on: LP-1; parameters: method as in earlier work; details: cited from earlier work
[7] = tested on: NCI-H929; parameters: method as in earlier work; details: cited from earlier work
[8] = tested on: OPM-2; parameters: method as in earlier work; details: cited from earlier work
[9] = tested on: RPMI 8226; parameters: method as in earlier work; details: cited from earlier work
[10] = tested on: U266; parameters: method as in earlier work; details: cited from earlier work
[11] = tested on: MM tumors; parameters: method as in PMID 20033476, PMID 16753295; details: xenografted mice bearing MM tumors; cited from earlier work
[12] = biological target: T1, AEBS; assay: Binding to the AEBS in LP1; parameters: endogenous in cells; host or cells: LP-1 human multiple myeloma cell lines
[13] = biological target: T2, ChEH (Homo sapiens, UniProt Q15125+Q9UBM7); assay: ChEH activity measured on intact cells; assay type: cell-based; parameters: endogenous in cells; host or cells: LP-1 human multiple myeloma cell lines
T2 sequence (Q15125 whole entry): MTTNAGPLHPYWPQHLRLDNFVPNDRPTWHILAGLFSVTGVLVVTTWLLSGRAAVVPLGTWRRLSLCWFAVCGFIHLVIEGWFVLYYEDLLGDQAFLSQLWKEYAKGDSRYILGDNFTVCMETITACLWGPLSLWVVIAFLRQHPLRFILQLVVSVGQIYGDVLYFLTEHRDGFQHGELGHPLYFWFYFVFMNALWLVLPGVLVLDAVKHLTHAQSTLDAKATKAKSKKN
T2 sequence (Q9UBM7 whole entry): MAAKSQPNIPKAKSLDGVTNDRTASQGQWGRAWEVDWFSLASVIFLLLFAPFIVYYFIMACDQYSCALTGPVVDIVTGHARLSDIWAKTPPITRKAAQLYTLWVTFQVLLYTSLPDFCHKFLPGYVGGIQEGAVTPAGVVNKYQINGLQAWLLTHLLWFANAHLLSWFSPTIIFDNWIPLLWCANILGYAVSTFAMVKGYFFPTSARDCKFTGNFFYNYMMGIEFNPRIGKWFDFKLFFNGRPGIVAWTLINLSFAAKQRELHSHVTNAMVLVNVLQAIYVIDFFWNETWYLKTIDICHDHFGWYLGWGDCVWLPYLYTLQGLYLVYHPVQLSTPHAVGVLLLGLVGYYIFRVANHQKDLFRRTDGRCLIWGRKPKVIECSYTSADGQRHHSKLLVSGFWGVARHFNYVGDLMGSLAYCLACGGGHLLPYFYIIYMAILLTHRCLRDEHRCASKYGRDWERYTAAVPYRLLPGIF
Description: (§2) Cells were then pelleted and extracted with chloroform/methanol (2/1). The organic layer was reduced to dryness under a flux of argon and the residue was resuspended in EtOH. Samples were applied to thin layer chromatography (TLC) plates and developed using ethyl acetate as previously described. The radioactive metabolites were visualized by autoradiography using Kodak Biomax MS films.

[14] = biological target: T2, ChEH; assay: ChEH activity measured on intact cells; assay type: cell-based; parameters: endogenous in cells; host or cells: RPMI 8226 human multiple myeloma cell lines
Description: as §2

[15] = biological target: T1, AEBS; assay: Binding to the AEBS in HMCLs; parameters: endogenous in cells; host or cells: RPMI 8226 and LP-1 human multiple myeloma cell lines
[16] = biological target: T2, ChEH; assay: ChEH activity in HMCLs (TLC); assay type: cell-based; parameters: endogenous in cells; host or cells: RPMI 8226 and LP-1 human multiple myeloma cell lines; details: for ChEH activity, conversion of 5,6-EC into CT by TLC: OHT, Tam, RU 58668 10 μM, PBPE 40 μM
Description: as §2

[17] = tested on: LP-1 cells; assay: Sterols accumulated in cells, HPLC and GC/MS; assay type: cell-based, human; details: LP1, 48 h incubation
Description: as §1

[18] = tested on: RPMI 8226 cells; assay: Sterols accumulated in cells, HPLC and GC/MS; assay type: cell-based, human; details: RPMI 8226, 48 h incubation
Description: as §1

[19] = tested on: LP-1 cells; assay: Presence of 5,6-EC in cells by GC/MS; assay type: cell-based, human; details: 48 h, 10 μM drug (PBPE 40 μM)
Description: as §1

[20] = tested on: RPMI 8226 cells; assay: Presence of 5,6-EC in cells by GC/MS; assay type: cell-based, human; details: 48 h, 10 μM drug (PBPE 40 μM)
Description: as §1

[21] = tested on: RPMI 8226 and LP-1 cells; assay: Degradation of long-lived proteins; assay type: cell-based, human; details: both cell lines, 10 μM OHT, 40 μM PBPE
Description: The degradation of long-lived proteins was measured as described previously. Briefly, HMCLs were incubated for 24 h at 37°C with 0.2 μCi/ml of L-[[14]C]valine in complete medium. Cells were then washed resuspended in medium with no nutrients but supplemented with 10 mM valine. After the first h of incubation, the chase medium was replaced by complete medium and the incubation continued for 5 h. […] Radiolabeled proteins present in the chase medium as well as in cells were precipitated with 10% trichloroacetic acid (v/v) at 4°C. Radioactivity was measured by scintillation counting. The rate of protein degradation was calculated from the ratio of radioactivity in the medium to that of precipitated cell fraction.

[22] = tested on: RPMI 8226 and LP-1 cells; assay: Cell viability, MTT assay; assay type: cell-based, human; details: 1 μM LY 294002, 10 nM everolimus, 10 μM RU 39411, 40 μM PBPE
Description: RPMI 8226 were obtained from R Bataille (CLCC, Nantes, France) and LP-1 cells from D Bouscary (Institut Cochin, Paris, France). At their arrival, the identity of cells was checked by karyotyping and surface markers expression; cells were then amplified and frozen. HMCLs were maintained in RPMI 1640 medium (Lonza, Basel, Switzerland) supplemented with 2 mM L-glutamine (Lonza) and 10% FCS (fetal calf serum) (PAA Laboratories, Velizy-Villacoublay, France). In experiments with AEs, cells were cultured in phenol red-free medium plus FCS. AEs were dissolved in ethanol (EtOH) to obtain 10 mM stock solution and then diluted into medium immediately before use. For controls, vehicle was added at the same final concentration. Cell viability was determined using CellTiter 96® AQueous One Solution (MTT [([3]-([4],[5])-dimethylthiazol-[2]-yl)-[2],[5]-diphenyltetrazolium bromide] assay, Promega, Charbonnières, France) according to the supplier's instructions.

[23] = tested on: RPMI 8226 and LP-1 cells; assay: Intracellular free sterol, TG and SM contents; assay type: cell-based, human; details: 5 µM OHT, 20 µM PBPE or 5 µM RU 58668 for three days
Description: as §1

[24] = RPMI 8226, presence of 500 μM Vit E

T1 sequence (Q15125 whole entry): as the sequence (Q15125 whole entry) above
T1 sequence (Q9UBM7 whole entry): as the sequence (Q9UBM7 whole entry) above

Compound | Ki [1] | AV ([2]; RPMI 8226, absence of Vit E) | MLB ([2]; RPMI 8226, absence of Vit E) | UV ([2]; RPMI 8226, absence of Vit E) | AV [2, 24] | MLB [2, 24] | UV [2, 24] | AV ([3]; LP-1, absence of Vit E) | MLB ([3]; LP-1, absence of Vit E) | UV ([3]; LP-1, absence of Vit E) | AV ([3]; LP-1, presence of 500 μM Vit E) | MLB ([3]; LP-1, presence of 500 μM Vit E) | UV ([3]; LP-1, presence of 500 μM Vit E) | free sterol accumulated [4] | Ki [12] | affinity for the AEBS [15] | ChEH activity, conversion of 5,6-EC into CT by TLC [16] | further results
C[C@]12C[C@H](c3ccc(OCCCCCS(=O)(=O)CCCC(F)(F)C(F)(F)F)cc3)[C@@H]3c4ccc(O)cc4CC[C@H]3[C@@H]1CC[C@@H]2O [RU 58668, 17β-11-[4-[5-[([4],[4],[5],[5],[5]-pentafluoropentyl)-sulfonyl]-pentyloxy]-phenyl]estra-1,3,5(10)-triene,3,17-diol] | > 10000 nM | + + (The sign + means that 80 % cells were positive and contained at least 5 vesicles) | − − (otherwise they were considered as negative (-)) | − − (otherwise they were considered as negative (-)) | + + (The sign + means that 80 % cells were positive and contained at least 5 vesicles) | − − (otherwise they were considered as negative (-)) | − − (otherwise they were considered as negative (-)) | + + (The sign + means that 80 % cells were positive and contained at least 5 vesicles) | − − (otherwise they were considered as negative (-)) | − − (otherwise they were considered as negative (-)) | + + (The sign + means that 80 % cells were positive and contained at least 5 vesicles) | − − (otherwise they were considered as negative (-)) | − − (otherwise they were considered as negative (-)) | did not induce free sterol accumulation | > 10000 nM | no measurable affinity | CT accumulated | SERM and SERDs effects on MM cell lines [5]: No response; SERM and SERDs effects on MM cell lines [6]: G1-arrest; SERM and SERDs effects on MM cell lines [7]: Apoptosis; SERM and SERDs effects on MM cell lines [8]: G1-arrest; SERM and SERDs effects on MM cell lines [9]: Apoptosis; SERM and SERDs effects on MM cell lines [10]: No response; tumor growth [11]: block tumor growth; IC50 ([13]; LP-1 intact cells, [14C]-5,6-EC 0.6 μM, drugs 1 nM to 10 μM over 24 h, read-out: ChEH IC50): > 10000 nM; IC50 ([14]; RPMI 8226 intact cells, [14C]-5,6-EC 0.6 μM, drugs 1 nM to 10 μM over 24 h, read-out: ChEH IC50): > 10000 nM; IC50 ([16]; read-out: concentration up to which ChEH was not inhibited): > 10000 nM
Cl.c1ccc(Cc2ccc(OCCN3CCCC3)cc2)cc1 [PBPE, 1-(2-(4-benzylphenoxy)-ethyl)-pyrrolidin-HCl] | 4.2 ± 1.8 nM | + + (The sign + means that 80 % cells were positive and contained at least 5 vesicles) | + + (The sign + means that 80 % cells were positive and contained at least 5 vesicles) | + (The sign + means that 80 % cells were positive and contained at least 5 vesicles) | + + (The sign + means that 80 % cells were positive and contained at least 5 vesicles) | + + (The sign + means that 80 % cells were positive and contained at least 5 vesicles) | − (otherwise they were considered as negative (-)) | + + (The sign + means that 80 % cells were positive and contained at least 5 vesicles) | + + (The sign + means that 80 % cells were positive and contained at least 5 vesicles) | + (The sign + means that 80 % cells were positive and contained at least 5 vesicles) | + + (The sign + means that 80 % cells were positive and contained at least 5 vesicles) | + + (The sign + means that 80 % cells were positive and contained at least 5 vesicles) | − (otherwise they were considered as negative (-)) | accumulation zymostenol | 3.2 ± 2.2 nM | high affinity | ChEH activity was inhibited | Desmosterol [17]: 1.2 percent by the weight of total sterol; Zymostenol [17]: 31.1 percent by the weight of total sterol; Desmosterol [18]: 1.4 percent by the weight of total sterol; Zymostenol [18]: 28.7 percent by the weight of total sterol; 5,6-EC ([19]; LP-1, absence of Vit E): +; 5,6-EC ([19]; LP-1, presence of 500 μM Vit E): −; 5,6-EC ([20]; RPMI 8226, absence of Vit E): +; 5,6-EC [20, 24]: −; rate of long-lived protein degradation [21]: stimulated; cell death (viable cells, MTT assay) [22]: cell death that was strictly caspase-independent; intracellular free sterol, triacylglycerol (TG) and sphingomyelin (SM) contents [23]: increases; IC50 [13]: 884 ± 32 nM; IC50 [14]: 927 ± 24 nM
